Experimental data published in patent US6403788B1, “Non-genotoxic metalloporphyrins as synthetic catalytic scavengers of reactive oxygen species” (Eukarion, Inc., priority 2000, dated 2002).

Tests used:
[1] = system: ΦX 174 DNA Plasmid (Form I); assay: Cleavage of ΦX 174 DNA plasmid (form I), compound alone or activated with KHSO5; assay type: biochemical, phage ΦX 174; conditions: for S (single-strand breaks per DNA molecule) / form % I / form % II / form % III: DNA 3.5 nM
Text: (§1) The DNA cleavage activity was quantified in terms of number of single-strand breaks per DNA molecule according to the equation […], Io=% form I (supercoiled DNA) in the DNA control, and I=% form I in the experiment (see Bernadou et al, Biochemistry, 28: 7268-7275, (1989)). This assay is very sensitive and is able to detect very low levels of DNA activity. S values less than S=1.0 are indicative of very low DNA cleavage activity when the compounds are at a concentration of equal to or less than 1000 nM and KHSO5 is present at a concentration of equal to or less than 100 μM.
(§2) ΦX 174 DNA digestion conditions for standard experiments were as follows: commercially available DNA was diluted to 50 μg/mL in phosphate buffer (10 mM, pH 7.5). The reaction involved 5 μL of ΦX 174 DNA (50 μg/mL, 74.8 μM in base pairs), 5 μL of 40 mM phosphate buffer, pH 7.5 with 400 mM NaCl, 5 μL of metalloporphyrin in double-distilled water or 5 μL of iron-bleomycin complex in double-distilled water, and 5 μL of KHSO5 or 5 μL of H2O2 or 5 μL of ascorbate in double-distilled water. Preincubation of DNA and metalloporphyrins or iron-bleomycin complex was performed for about 15 min. The digestion time in the presence of KHSO5 was 10 min, of H2O2 was 30 min and of ascorbate was 30 min at 20° C. DNA cleavage was monitored by agarose gel electrophoresis. Reactions with KHSO5 were first quenched by 2 μL of 100 mM Hepes buffer, pH 8. In all cases, reactions were quenched by 5 μL of a stopping reagent. The stopping reagent consisted of 250 mM Hepes buffer, pH 7.4, containing 75% glycerol and 0.05% bromophenol blue. Reaction mixtures were then run in 0.8% agarose slab horizontal gel containing ethidium bromide […], at constant current (25 mA for 15h), in 89 mM Tris-borate buffer and 2.5 mM EDTA pH 8.3. Bands were located by WV light (254 nm), photographed, and quantitated by microdensitometry. The correction coefficient 1.47±0.30 was used for decreased stainability of form I DNA vs form II DNA and form III DNA.

[2] = system: ΦX 174 DNA Plasmid (Form I); assay: Cleavage of ΦX 174 DNA plasmid (form I), activation with H2O2; assay type: biochemical, phage ΦX 174; conditions: for S (single-strand breaks per DNA molecule) / form % I / form % II / form % III: DNA 3.5 nM, H2O2 1 mM
Text: as §1, §2

[3] = system: CBA/J female mice, oxazolone-induced inflammatory ear edema; assay: Delayed type hypersensitivity: oxazolone-induced ear edema; assay type: in vivo
Text: CBA/J female mice (Jackson Labs, Bar Harbor, ME) 7 weeks of age were pre-sensitized with 3% oxazolone (Sigma Chemical Co., St. Louis, Mo.) in 99.9% acetone, on the abdomen. After 8 days, the mice were challenged with 1.2% oxazolone topically on one ear to induce an inflammatory edema. Either Structural Formula V, Structural Formula IV at a dose of 7 nmoles/ear each, or ethanol, i.e. vehicle control (eight mice per study group), was applied topically to the ear immediately after the oxazolone challenge. Ear edema was measured by comparing the tissue water content (the wet weight minus the dry weight) of the challenged ear to that of the control ear. The percent edema (% water in the right ear-left ear) in the vehicle control was 6.5% and 2.1% and 3.9% for Structural Formula V and Structural Formula IV, respectively at a dose of 7 nmoles/ear.

[4] = Catalase activity, hydrogen peroxide consumed at 20 minutes; assay type: biochemical; conditions: over 20 minutes; 10 μM compound, 100 μM hydrogen peroxide, 40 mM sodium phosphate pH 7.4
Protocol: (§3) Catalase activity was measured by incubating the sample compound with hydrogen peroxide and determining the amount of hydrogen peroxide remaining after a period of time using a colorimetric peroxidase-coupled assay method. 10 μM sample compound and 100 μM hydrogen peroxide in 40 mM sodium phosphate pH 7.4 were incubated together at ambient temperature in a multi-well plate. After the desired reaction period had elapsed, 20 μl of peroxidase/ABTS reagent was added (peroxidase/ABTS reagent contained 100 μl of 50 mM Na phosphate, pH 7.4, 1 mg horseradish peroxidase (1310 U/mg) and […]). After five minutes, absorbance at 750 nm was determined. The amount of hydrogen peroxide remaining was calculated based on a standard curve. To compare rates of catalase reaction, the amount of hydrogen peroxide consumed at 20 minutes was determined (See table III). It was also of interest to determine the total number of turnovers completed by the compound before inactivation by hydrogen peroxide. This was assayed under similar conditions, except that 15.8 μM compound was combined with 1582 μM hydrogen peroxide in 5 mM Na phosphate, pH 7.4. Reactions were allowed to proceed to completion and then the amount of hydrogen peroxide remaining was determined as described above. Results showing […] in the turnover assay (nmoles hydrogen peroxide per nmole compound) are also shown in Table III.

[5] = Catalase turnover assay, total hydrogen peroxide consumed before inactivation; assay type: biochemical; conditions: to completion, 15.8 μM compound, 1582 μM hydrogen peroxide, 5 mM Na phosphate pH 7.4
Protocol: as §3

SMILES: CC[NH+](CC)CCNS(=O)(=O)c1c(C)cc(C)c(C2=C3C=CC4=[N+]3[Fe-]35[n]6c2ccc6C(c2c(C)cc(C)c(S(=O)(=O)NCC[NH+](CC)CC)c2C)=C2C=CC(=[N+]23)C(c2c(C)cc(C)c(S(=O)(=O)NCC[NH+](CC)CC)c2C)=c2ccc([n]25)=C4c2c(C)cc(C)c(S(=O)(=O)NCC[NH+](CC)CC)c2C)c1C.[Cl-].[Cl-].[Cl-].[Cl-].[Cl-] [Structural Formula V, meso-tetrakis[3-(N-(2-(N,N-diethylammonio)ethyl)aminosulfonyl)-2,4,6-trimethylphenyl]porphyrinato diaqua-iron (III) pentachloride]
- S (single-strand breaks per DNA molecule) ([1]; compound 10 nM, KHSO5 100 μM): 0.01 SSBs
- form % I ([1]; compound 10 nM, KHSO5 100 μM): 91%
- form % II ([1]; compound 10 nM, KHSO5 100 μM): 9%
- form % III ([1]; compound 10 nM, KHSO5 100 μM): 0%
- S (single-strand breaks per DNA molecule) ([1]; compound 10 nM, without KHSO5): 0 SSBs
- form % I ([1]; compound 10 nM, without KHSO5): 92%
- form % II ([1]; compound 10 nM, without KHSO5): 8%
- form % III ([1]; compound 10 nM, without KHSO5): 0%
- S (single-strand breaks per DNA molecule) ([1]; compound 100 nM, KHSO5 100 μM): 0.03 SSBs
- form % I ([1]; compound 100 nM, KHSO5 100 μM): 90%
- form % II ([1]; compound 100 nM, KHSO5 100 μM): 10%
- form % III ([1]; compound 100 nM, KHSO5 100 μM): 0%
- S (single-strand breaks per DNA molecule) ([1]; compound 100 nM, without KHSO5): 0 SSBs
- form % I ([1]; compound 100 nM, without KHSO5): 92%
- form % II ([1]; compound 100 nM, without KHSO5): 8%
- form % III ([1]; compound 100 nM, without KHSO5): 0%
- S (single-strand breaks per DNA molecule) ([1]; compound 1 μM, KHSO5 100 μM): 0.07 SSBs
- form % I ([1]; compound 1 μM, KHSO5 100 μM): 87%
- form % II ([1]; compound 1 μM, KHSO5 100 μM): 13%
- form % III ([1]; compound 1 μM, KHSO5 100 μM): 0%
- S (single-strand breaks per DNA molecule) ([1]; compound 1 μM, without KHSO5): 0.07 SSBs
- form % I ([1]; compound 1 μM, without KHSO5): 87%
- form % II ([1]; compound 1 μM, without KHSO5): 13%
- form % III ([1]; compound 1 μM, without KHSO5): 0%
- DNA cleavage activity in oxidative medium ([1]; oxidative medium (KHSO5)): do not exhibit any significant DNA cleavage activity
- S (single-strand breaks per DNA molecule) ([2]; compound 10 nM): 0.01 SSBs
- form % I ([2]; compound 10 nM): 94%
- form % II ([2]; compound 10 nM): 6%
- form % III ([2]; compound 10 nM): 0%
- S (single-strand breaks per DNA molecule) ([2]; compound 100 nM): 0 SSBs
- form % I ([2]; compound 100 nM): 95%
- form % II ([2]; compound 100 nM): 5%
- form % III ([2]; compound 100 nM): 0%
- S (single-strand breaks per DNA molecule) ([2]; compound 1 μM): 0.16 SSBs
- form % I ([2]; compound 1 μM): 84%
- form % II ([2]; compound 1 μM): 16%
- form % III ([2]; compound 1 μM): 0%
- DNA cleavage activity in H2O2 medium ([2]; H2O2 medium): does not exhibit significant DNA cleavage activity
- effect on edema compared to vehicle ([3]; 7 nmoles/ear topically): effective in reducing the percentage of edema
- percent edema (% water in the right ear-left ear) ([3]; 7 nmoles/ear topically immediately after oxazolone challenge, vehicle control 6.5%): 2.1%
- CATALASE* Rate at 20 mins. [4]: 6.4 nmole H2O2/nmole Structural Formula compound
- CATALASE** H2O2 Consumption [5]: 36.1 nmole H2O2/nmole Structural Formula compound
